The test system of this assay is retina. As to the kind of experiment: Light-induced retinal apoptosis in rats under continuous light exposure, TUNEL staining. It is filed as in vivo, SD strain rats. The note with it: SD rats exposed to 1000 lux for 4 days; 10 μg/kg subcutaneously three times a day for 4 days; TUNEL-positive cells to total cells per 200 μm of retina; n=5; control 9.3 ± 0.8; p < 0.01. As to the method: (1) Breeding Condition and Administration Method SD strain rats (male, 11 weeks old) were continuously exposed to 1000 lux of light for 4 days. During the exposure of light, the test group animals were administered subcutaneously with a composition comprising 2-decarboxy-2-(2-carboxyethyl)-13,14-dihydro-15-keto-16,16-difluoro-20-ethyl-PGE, isopropyl ester of the following formula (IV) at the amount of 10 μg/kg of the active ingredient per single administration three times a day, for 4 days. The control group animals were administrated subcutaneously the same volume of the vehicle. [drawing 7] (2) Preparation and Staining After the continuous light exposure was finished, animals of test and control groups were sacrificed by excessive etherization and both eyes of each animal were removed. The eyes were immediately fixed in a 2% paraformaldehyde and 2.5% glutaraldehyde solution in phosphate buffer, dehydrated with alcohol, and then embedded in paraffin. Thus fixed eyes were sliced parallel to the meridian of eye to provide thin retinal preparations each comprises optic disc. The obtained slices were subjected to tunnel staining (Apoptag® Intergen Company). (3) Estimation Total cell number and the number of tunnel-positive cells per 200 μm of the retina were counted and the ratio of the TUNEL-positive cells to the total cell number was determined. […]

One molecule from patent US7129272B2, “Apoptosis inhibitor” (Sucampo AG, priority 2000, dated 2006) can be followed below.

Take `CCCCCCC(F)(F)C(=O)CC[C@H]1[C@H](O)CC(=O)[C@@H]1CCCCCCCCC(=O)OC(C)C` [formula (IV), 2-decarboxy-2-(2-carboxyethyl)-13,14-dihydro-15-keto-16,16-difluoro-20-ethyl-PGE, isopropyl ester]: the “Ratio of the TUNEL-positive cells (%) (Ave ± SE)” value was found to be 1.5 ± 0.2 %.
